From patent US7071205B2 (Ligand Pharmaceuticals Incorporated, priority 2002, dated 2006)
pEC50, pIC50, pKi: −log10 of the molar value. Read-outs that look alike come from different tables or passages of the source.

Key:
[1] = target: T1, hPR (Homo sapiens, UniProt P06401); assay: Cotransfection assay, PR agonist activity in CV-1 cells; type: cell-based; conditions: for pEC50: agonist potency EC50, read-out: PR Agonist CV-1 Cells Potency
T1 sequence (P06401 1-933): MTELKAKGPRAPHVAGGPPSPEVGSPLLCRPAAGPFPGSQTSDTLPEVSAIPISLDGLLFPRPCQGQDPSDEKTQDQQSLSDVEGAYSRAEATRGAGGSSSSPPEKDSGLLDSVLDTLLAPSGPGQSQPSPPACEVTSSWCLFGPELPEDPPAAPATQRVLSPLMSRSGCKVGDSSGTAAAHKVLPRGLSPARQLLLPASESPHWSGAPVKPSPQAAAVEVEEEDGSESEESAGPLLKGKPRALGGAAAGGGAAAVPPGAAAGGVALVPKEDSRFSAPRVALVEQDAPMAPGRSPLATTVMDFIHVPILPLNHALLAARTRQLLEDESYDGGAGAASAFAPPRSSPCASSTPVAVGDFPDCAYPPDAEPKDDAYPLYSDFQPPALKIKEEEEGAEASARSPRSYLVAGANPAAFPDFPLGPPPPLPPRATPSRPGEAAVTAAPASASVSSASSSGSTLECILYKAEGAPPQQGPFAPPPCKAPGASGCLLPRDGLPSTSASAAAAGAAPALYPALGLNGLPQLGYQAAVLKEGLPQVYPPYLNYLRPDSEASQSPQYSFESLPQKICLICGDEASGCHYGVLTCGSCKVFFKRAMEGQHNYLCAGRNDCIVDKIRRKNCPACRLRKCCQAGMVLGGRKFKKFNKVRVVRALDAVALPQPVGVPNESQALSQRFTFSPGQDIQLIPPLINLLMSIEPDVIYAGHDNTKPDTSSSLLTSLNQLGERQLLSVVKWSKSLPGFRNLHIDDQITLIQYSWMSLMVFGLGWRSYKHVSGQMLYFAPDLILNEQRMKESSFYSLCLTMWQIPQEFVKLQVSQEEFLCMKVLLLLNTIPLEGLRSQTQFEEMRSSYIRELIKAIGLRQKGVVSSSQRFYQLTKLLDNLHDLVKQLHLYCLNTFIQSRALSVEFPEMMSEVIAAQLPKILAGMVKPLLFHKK

[2] = target: T1, hPR; assay: Cotransfection assay, PR antagonist activity in CV-1 cells; type: cell-based; conditions: for pIC50: antagonist potency IC50; for PR Antagonist CV-1 Cells Efficacy (%): percent maximal response relative to reference antagonist
[3] = target: T2, hPR-A (Homo sapiens, UniProt P06401); assay: Receptor competitive binding assay; conditions: hPR-A; read-out: PR Binding Ki
T2 sequence (P06401 1-769 isoform P06401-2): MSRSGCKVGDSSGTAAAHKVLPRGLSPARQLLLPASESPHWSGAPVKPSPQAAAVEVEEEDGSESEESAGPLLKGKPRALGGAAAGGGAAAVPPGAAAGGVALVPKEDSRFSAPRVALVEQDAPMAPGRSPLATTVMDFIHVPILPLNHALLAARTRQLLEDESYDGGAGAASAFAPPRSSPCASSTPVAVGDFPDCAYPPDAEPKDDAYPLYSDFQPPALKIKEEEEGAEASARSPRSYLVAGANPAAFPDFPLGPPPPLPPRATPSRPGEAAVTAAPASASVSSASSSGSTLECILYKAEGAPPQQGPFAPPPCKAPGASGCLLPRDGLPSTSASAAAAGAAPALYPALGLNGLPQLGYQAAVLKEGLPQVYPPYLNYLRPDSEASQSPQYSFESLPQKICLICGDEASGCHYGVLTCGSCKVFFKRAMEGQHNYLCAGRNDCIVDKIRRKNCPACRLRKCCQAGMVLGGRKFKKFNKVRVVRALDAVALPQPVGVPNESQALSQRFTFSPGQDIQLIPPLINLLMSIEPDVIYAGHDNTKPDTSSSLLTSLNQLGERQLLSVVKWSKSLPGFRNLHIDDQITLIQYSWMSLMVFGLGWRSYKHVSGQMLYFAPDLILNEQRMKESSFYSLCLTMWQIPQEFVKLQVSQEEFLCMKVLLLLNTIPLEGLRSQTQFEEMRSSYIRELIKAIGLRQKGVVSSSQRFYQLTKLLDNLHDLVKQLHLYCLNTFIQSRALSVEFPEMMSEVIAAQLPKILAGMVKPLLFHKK

[4] = test system: immature rabbits; assay: McPhail (Clauberg) assay of progestational activity; type: in vivo, rabbit; conditions: minimum active dose; estradiol-primed immature rabbits, uterine glandular changes
Procedure: The in vivo activity of selected hPR modulator compounds of the present invention were evaluated utilizing the McPhail assay, according to the following illustrative Examples. The Clauberg or McPhail assay is a classic assay utilizing rabbits to measure progestational activity. […] This is followed by treatment with a progestin, which causes a large change in the glandular content of the uterus. It is this change in the glandular component, which is a measure of the progestational activity of a progestin. The measurement of these glandular changes are carried out histologically using stained sections of the uterus. The in vivo potency of the progestins is presented as the minimum active dose (MAD) in mg/kg.

[5] = CV-1 cells, MTV-LUC reporter, percent maximal response relative to progesterone

Row | PR Agonist CV-1 Cells Efficacy (%) [1, 5] | pEC50 ([1]; CV-1 cells) | pIC50 [2] | pKi [3] | SMILES | PR Antagonist CV-1 Cells Efficacy (%) [2] | MAD [4] [mg/kg] | PR Agonist CV-1 Cells Efficacy (%) [1]
1 | 122% | 8.00 | < 5.00 | 7.96 | CC1=C[C@H]([C@H]2Oc3ccc(F)cc3-c3ccc4c(c32)C=CC(C)(C)N4)CCC1 (racemic) [Compound 41, (±)-(5l,1′l)-5-(3-methyl-2-cyclohexenyl)-9-fluoro-1,2-dihydro-2,2-dimethyl-5H-chromeno[3,4-f]quinoline] | na (na = not active (i.e. efficacy of <20 and potency of >10,000)) |  | 
2 | 27% | 7.42 | < 5.00 | 6.84 | CC1=C[C@@H]([C@H]2Oc3ccc(F)cc3-c3ccc4c(c32)C=CC(C)(C)N4)CCC1 (racemic) [Compound 42, (±)-(5l,1′u)-5-(3-methyl-2-cyclohexenyl)-9-fluoro-1,2-dihydro-2,2-dimethyl-5H-chromeno[3,4-f]quinoline] | na (na = not active (i.e. efficacy of <20 and potency of >10,000)) |  | 
3 | 123% | 8.17 | < 5.00 | 8.11 | CC1=CC(C2Oc3ccc(F)cc3-c3ccc4c(c32)C(C)=CC(C)(C)N4)CC1 (racemic) [Compound 44, (±)-(5l,1′l)-5-(3-methyl-2-cyclopentenyl)-9-fluoro-1,2-dihydro-2,2,4-trimethyl-5H-chromeno[3,4-f]quinoline] | na (na = not active (i.e. efficacy of <20 and potency of >10,000)) |  | 
4 | 94% | 8.04 | < 5.00 | 7.77 | CC1=CC(C2Oc3ccc(F)cc3-c3ccc4c(c32)C(C)=CC(C)(C)N4)CC1 (racemic) [Compound 45, (±)-(5l,1′u)-5-(3-methyl-2-cyclopentenyl)-9-fluoro-1,2-dihydro-2,2,4-trimethyl-5H-chromeno[3,4-f]quinoline] | na (na = not active (i.e. efficacy of <20 and potency of >10,000)) |  | 
5 | 100% |  |  |  | CC(=O)[C@H]1CC[C@H]2[C@@H]3CCC4=CC(=O)CC[C@]4(C)[C@H]3CC[C@]12C [Prog, progesterone, reference compound] |  |  | 

Further lines, the compound ahead of its results:

Row | SMILES | PR Agonist CV-1 Cells Efficacy (%) [1, 5] | pEC50 ([1]; CV-1 cells) | pIC50 [2] | pKi [3] | PR Antagonist CV-1 Cells Efficacy (%) [2] | MAD [4] [mg/kg] | PR Agonist CV-1 Cells Efficacy (%) [1]
6 | CC1=CC(C2Oc3ccc(F)cc3-c3ccc4c(c32)C(C)=CC(C)(C)N4)CCC1 (racemic) [Compound 25, (±)-(5l,1′u)-5-(3-methyl-2-cyclohexenyl)-9-fluoro-1,2-dihydro-2,2,4-trimethyl-5H-chromeno[3,4-f]quinoline] | 86% | 8.01 | < 5.00 | 8.20 | na (na = not active (i.e. efficacy of <20 and potency of >10,000)) |  | 
7 | CC1=C[C@H]([C@H]2Oc3c(F)cc(F)cc3-c3ccc4c(c32)C(C)=CC(C)(C)N4)CCC1 (racemic) [Compound 34, (±)-(5l,1′l)-5-(3-methyl-2-cyclohexenyl)-7,9-difluoro-1,2-dihydro-2,2,4-trimethyl-5H-chromeno[3,4-f]quinoline] | 164% |  |  |  | na (na = not active (i.e. efficacy of <20 and potency of >10,000)) | 0.25 | 
8 | CC1=C[C@@H]([C@H]2Oc3c(F)cc(F)cc3-c3ccc4c(c32)C(C)=CC(C)(C)N4)CCC1 (racemic) [Compound 35, (±)-(5l,1′u)-5-(3-methyl-2-cyclohexenyl)-7,9-difluoro-1,2-dihydro-2,2,4-trimethyl-5H-chromeno[3,4-f]quinoline] | 100% |  |  |  | na (na = not active (i.e. efficacy of <20 and potency of >10,000)) |  | 
9 | COc1cc2c(cc1F)-c1ccc3c(c1C(C1C=C(C)CCC1)O2)C(C)=CC(C)(C)N3 (racemic) [Compound 64, (±)-(5l,1′l)-5-(3-methyl-2-cyclohexenyl)-9-fluoro-1,2-dihydro-8-methoxy-2,2,4-trimethyl-5H-chromeno[3,4-f]quinoline] | na (na = not active (i.e. efficacy of <20 and potency of >10,000)) | < 5.00 | 5.72 | 6.31 | 80% |  | 
10 | COc1cc2c(cc1F)-c1ccc3c(c1C(C1C=C(C)CCC1)O2)C(C)=CC(C)(C)N3 (racemic) [Compound 65, (±)-(5l,1′u)-5-(3-methyl-2-cyclohexenyl)-9-fluoro-1,2-dihydro-8-methoxy-2,2,4-trimethyl-5H-chromeno[3,4-f]quinoline] | na (na = not active (i.e. efficacy of <20 and potency of >10,000)) | < 5.00 | 6.19 | 6.48 | 59% |  | 
11 | CC1=CC(C2Oc3ccc(F)cc3-c3ccc4c(c32)C(C)=CC(C)(C)N4)CCC1 (single isomer, unassigned; (+)) [Compound 27, (+)-(5l,1′l)-5-(3-methyl-2-cyclohexenyl)-9-fluoro-1,2-dihydro-2,2,4-trimethyl-5H-chromeno[3,4-f]quinoline] | 68% | 7.37 | < 5.00 | 6.62 | na (na = not active (i.e. efficacy of <20 and potency of >10,000)) |  | 
12 | CC1=CC(C2Oc3c(F)cc(F)cc3-c3ccc4c(c32)C(C)=CC(C)(C)N4)CCC1 (single isomer, unassigned; (+)) [Compound 37, (+)-(5l,1′l)-5-(3-methyl-2-cyclohexenyl)-7,9-difluoro-1,2-dihydro-2,2,4-trimethyl-5H-chromeno[3,4-f]quinoline] | na (na = not active (i.e. efficacy of <20 and potency of >10,000)) |  |  |  | 50% |  | 
13 | CC1=CC(C2Oc3ccc(F)cc3-c3ccc4c(c32)C(C)=CC(C)(C)N4)CCC1 (single isomer, unassigned; (-)) [Compound 28, (−)-(5l,1′l)-5-(3-methyl-2-cyclohexenyl)-9-fluoro-1,2-dihydro-2,2,4-trimethyl-5H-chromeno[3,4-f]quinoline] | 171% | 9.05 | < 5.00 | 8.70 | na (na = not active (i.e. efficacy of <20 and potency of >10,000)) |  | 
14 | CC#C[C@]1(O)CC[C@H]2[C@@H]3CCC4=CC(=O)CCC4=C3[C@@H](c3ccc(N(C)C)cc3)C[C@@]21C [RU486, mifepristone, reference compound] |  |  |  |  |  |  | na (key: na = not active (i.e. efficacy of <20 and potency of >10,000))
15 | CN(C)c1ccc([C@H]2C[C@]3(C)[C@@H](CC[C@]3(O)CCCO)[C@@H]3CCC4=CC(=O)CCC4=C32)cc1 [ZK299, reference compound] |  |  |  |  | 99% |  | 
